Tests used:
[1] = system: human fibroblasts; assay: Real-time RT-PCR of Myogenin, CKM, Dystrophin mRNA with ERK5 pathway inhibitor (Example 13); format: cell-based; conditions: ML-infected cells with inhibitor, 14 days after infection
Protocol: (§1) In the same manner as in Example 12, human fibroblasts were infected with both a retrovirus vector incorporating MyoD1 gene and a retrovirus vector incorporating L-myc gene (ML). As a control, cells free of infection with a retrovirus vector were also prepared (−). A ERK5 pathway inhibitor, XMDB-92, was added at the indicated concentration to some groups. These were cultured in a myoblast differentiation medium in the same manner as in Example 12. 14 days after infection, nuclear staining was performed in the same manner as in Example 3. Images taken using a fluorescence microscope (Keyence BZ710) are shown (FIG. 13A, upper panel). In addition, the percentages of cells having 4 or more nuclei, cells having 2-3 nuclei and cells having one nucleus were calculated (FIG. 13A, lower panel).
In addition, 14 days after infection, RNA was extracted from the cells. As a control, RNA was also extracted from the primary human skeletal muscle cells (pSKMs). mRNAs of Myogenin, CKM, Dystrophin were quantified by real time RT-PCR.

[2] = system: human fibroblasts; assay: Multinucleation of ML-infected cells with or without ERK5 pathway inhibitor (Example 13); format: cell-based; conditions: addition of 2-5 μM inhibitor, 14 days after infection
Protocol: as §1

CCOc1cc(N2CCC(O)CC2)ccc1Nc1ncc2c(n1)N(C)c1ccccc1C(=O)N2C [XMD8-92]
induction of expression of Myogenin, CKM, Dystrophin mRNA by ML gene transfer [1]: not suppressed | percentage of cells having 2-3 nuclei [2]: 21-23% | percentage of cells having not less than 4 nuclei [2]: 10-12%
